Laboratory results taken from patent publication US11419806B2, “Prebiotic oral care methods using a saccharide” (Colgate-Palmolive Company, priority 2013, dated 2022).

Experiments:
Format in all cases: cell-based
Porphyromonas gingivalis = experiment: Twenty-four hour optical density growth in BHI; details: P gingivalis
Description: (§1) The extent of growth of the tested bacteria in response to selected saccharides (myo-inositol, D-lactitol, D-turanose and N-acetyl-D-mannosamine) was investigated by setting up growth curves in a nutritionally rich medium (brain heart infusion broth (BHI), Oxoid), over 24 hours. Late exponential growth phase liquid cultures were prepared by transferring the respective bacterium from blood agar plates to BHI and overnight incubation at 37° C. in an anaerobic atmosphere for A. viscosus, V. parvula, F. nucleatum, P. gingivalis, P. intermedia, T. forsythia, A. naeslundii, and C. sputigena, and in a 5% CO2 environment for S. salivarius, S. sanguinis, S. mitis, A. actinomycetemcomitans, S. mutans, S. sobrinus and S. gordonii. Overnight cultures were transferred to BHI and adjusted to a concentration of 1×10^7 CFU/ml (colony forming units per ml) by measuring the optical density at 600 nm (OD600) (BioRad SmartSpec 3000). For each strain, 200 μl of the bacterial suspension was added to a 96-well plate containing 20 μl of the respective saccharides. Final concentrations of the saccharides were set to 5, 10, 20 and 25 μmol/ml. […] Plates were incubated as previously described.
(§2) For each combination of bacterium/saccharide, and for each of their respective controls (i.e. the particular bacterium in the nutritionally rich medium with no saccharide), the optical density was measured at 630 nm (OD630) at 0 h and 24 h (Thermo Scientific Multiskan Ascent). Additionally, the OD630 for combinations of bacterium/saccharides grown in a 5% CO2 environment were also measured every hour between 0 h and 9 h.
(§3) The experiment was carried out on three different days (thus providing 3 biological replicas) and on each day the experiment was carried out in quadruple (thus providing 4 technical replicas) for each combination of bacterium with saccharide and for each control. For each day and for each combination, the average (mean) of the values obtained (as detailed above) for the four technical replicas was calculated to provide a single value for each combination on each day. The values shown in Tables 5a,b to 6a,b, below, are the average (mean) of the three single values obtained for each combination of bacterium with saccharide.

Prevotella intermedia = experiment: Twenty-four hour optical density growth in BHI; details: P intermedia
Description: as §1, §2, §3

A. actinomycetemcomitans = experiment: Twenty-four hour biofilm growth (crystal violet)
Summary of the method: (§4)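 Cultures grown in BHI at 37° C under 5% CO2 (S. salivarius, S. mitis, A. actinomycetemcomitans) or anaerobically (A. viscosus), inoculated at 1×10^7 CFU/ml with saccharides at 5–25 μmol/ml final for 24 h. Ethanol-fixed biofilm stained with crystal violet, A630 read against chlorhexidine background; mean of 3 days × 4 replicates.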

A. viscosus = experiment: Twenty-four hour biofilm growth (crystal violet)
Summary of the method: as §4

P. gingivalis = experiment: Twenty-four hour biofilm growth (crystal violet)
P. intermedia = experiment: Twenty-four hour biofilm growth (crystal violet)
S. gordonii = experiment: Twenty-four hour biofilm growth (crystal violet)
Summary of the method: (§5)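 Bacteria at 1×10^7 CFU/ml in BHI were grown 24 h at 37 °C with D-turanose, D-lactitol, myo-inositol or N-acetyl-D-mannosamine (final 5, 10, 20, 25 μmol/ml), anaerobically for A. viscosus and in 5% CO2 for the others. Ethanol-fixed biofilm was stained with crystal violet and read at 630 nm.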

S. mutans = experiment: Twenty-four hour biofilm growth (crystal violet); details: S mutans
Summary of the method: as §5

S. sanguinis = experiment: Twenty-four hour biofilm growth (crystal violet)
Summary of the method: as §5

T. forsythia = experiment: Twenty-four hour biofilm growth (crystal violet)
[1] = tested on: beneficial oral bacteria and pathogenic oral bacteria; experiment: Twenty-four hour optical density, overall prebiotic assessment; details: concentrations of 5, 10, 20 and 25 μmol/ml
Excerpt: Substrates that were able to increase the growth (or maximal growth density or extent of growth) of at least one of the above beneficial bacteria while not or only minimally increasing the growth (or maximal growth density) of the pathogenic bacteria are considered to be prebiotic compounds.
The extent of growth of the tested bacteria in response to selected saccharides (myo-inositol, D-lactitol, D-turanose and N-acetyl-D-mannosamine) was investigated by setting up growth curves in a nutritionally rich medium (brain heart infusion broth (BHI), Oxoid), over 24 hours. Late exponential growth phase liquid cultures were prepared by transferring the respective bacterium from blood agar plates to BHI and overnight incubation at 37° C. in an anaerobic atmosphere for A. viscosus, V. parvula, F. nucleatum, P. gingivalis, P. intermedia, T. forsythia, A. naeslundii, and C. sputigena, and in a 5% CO2 environment for S. salivarius, S. sanguinis, S. mitis, A. actinomycetemcomitans, S. mutans, S. sobrinus and S. gordonii. […]
as §2
as §3, with “The values shown in Tables 5a,b to 6a,b, below, are the average (mean) of the three single values obtained for each combination of bacterium with saccharide.” left out

CC(=O)N[C@H](C=O)[C@@H](O)[C@H](O)[C@H](O)CO [N-acetyl-D-mannosamine, 2-acetamido-2-deoxy-D-mannose]
extent of growth: maximal OD630 over 24 hr divided by maximal OD of control (control = 1) (Porphyromonas gingivalis; 5 μmol/ml): 0.8020
extent of growth: maximal OD630 over 24 hr divided by maximal OD of control (control = 1) (Porphyromonas gingivalis; 10 μmol/ml): 0.8427
extent of growth: maximal OD630 over 24 hr divided by maximal OD of control (control = 1) (Porphyromonas gingivalis; 20 μmol/ml): 0.9137
extent of growth: maximal OD630 over 24 hr divided by maximal OD of control (control = 1) (Porphyromonas gingivalis; 25 μmol/ml): 0.9419
extent of growth: maximal OD630 over 24 hr divided by maximal OD of control (control = 1) (Prevotella intermedia; 5 μmol/ml): 0.9530
extent of growth: maximal OD630 over 24 hr divided by maximal OD of control (control = 1) (Prevotella intermedia; 10 μmol/ml): 1.0261
extent of growth: maximal OD630 over 24 hr divided by maximal OD of control (control = 1) (Prevotella intermedia; 20 μmol/ml): 1.0229
extent of growth: maximal OD630 over 24 hr divided by maximal OD of control (control = 1) (Prevotella intermedia; 25 μmol/ml): 1.0494
biofilm growth: OD 630 nm at 24 hrs divided by OD of control (control = 1) (A. actinomycetemcomitans; 5 μmol/ml): 0.9519
biofilm growth: OD 630 nm at 24 hrs divided by OD of control (control = 1) (A. actinomycetemcomitans; 10 μmol/ml): 1.0569
biofilm growth: OD 630 nm at 24 hrs divided by OD of control (control = 1) (A. actinomycetemcomitans; 20 μmol/ml): 0.6532
biofilm growth: OD 630 nm at 24 hrs divided by OD of control (control = 1) (A. actinomycetemcomitans; 25 μmol/ml): 0.7158
biofilm growth: OD 630 nm at 24 hrs divided by OD of control (control = 1) (A. viscosus; 5 μmol/ml): 0.8126
biofilm growth: OD 630 nm at 24 hrs divided by OD of control (control = 1) (A. viscosus; 10 μmol/ml): 0.9165
biofilm growth: OD 630 nm at 24 hrs divided by OD of control (control = 1) (A. viscosus; 20 μmol/ml): 0.5093
biofilm growth: OD 630 nm at 24 hrs divided by OD of control (control = 1) (A. viscosus; 25 μmol/ml): 0.6492
biofilm growth: OD 630 nm at 24 hrs divided by OD of control (control = 1) (P. gingivalis; 5 μmol/ml): 0.6683
biofilm growth: OD 630 nm at 24 hrs divided by OD of control (control = 1) (P. gingivalis; 10 μmol/ml): 0.8031
biofilm growth: OD 630 nm at 24 hrs divided by OD of control (control = 1) (P. gingivalis; 20 μmol/ml): 0.7270
biofilm growth: OD 630 nm at 24 hrs divided by OD of control (control = 1) (P. gingivalis; 25 μmol/ml): 0.8345
biofilm growth: OD 630 nm at 24 hrs divided by OD of control (control = 1) (P. intermedia; 5 μmol/ml): 1.1437
biofilm growth: OD 630 nm at 24 hrs divided by OD of control (control = 1) (P. intermedia; 10 μmol/ml): 1.5179
biofilm growth: OD 630 nm at 24 hrs divided by OD of control (control = 1) (P. intermedia; 20 μmol/ml): 1.0689
biofilm growth: OD 630 nm at 24 hrs divided by OD of control (control = 1) (P. intermedia; 25 μmol/ml): 1.2252
biofilm growth: OD 630 nm at 24 hrs divided by OD of control (control = 1) (S. gordonii; 5 μmol/ml): 0.7178
biofilm growth: OD 630 nm at 24 hrs divided by OD of control (control = 1) (S. gordonii; 10 μmol/ml): 1.0041
biofilm growth: OD 630 nm at 24 hrs divided by OD of control (control = 1) (S. gordonii; 20 μmol/ml): 0.5487
biofilm growth: OD 630 nm at 24 hrs divided by OD of control (control = 1) (S. gordonii; 25 μmol/ml): 0.6746
biofilm growth: OD 630 nm at 24 hrs divided by OD of control (control = 1) (S. mutans; 5 μmol/ml): 0.8572
biofilm growth: OD 630 nm at 24 hrs divided by OD of control (control = 1) (S. mutans; 10 μmol/ml): 0.8329
biofilm growth: OD 630 nm at 24 hrs divided by OD of control (control = 1) (S. mutans; 20 μmol/ml): 0.7015
biofilm growth: OD 630 nm at 24 hrs divided by OD of control (control = 1) (S. mutans; 25 μmol/ml): 0.6922
biofilm growth: OD 630 nm at 24 hrs divided by OD of control (control = 1) (S. sanguinis; 5 μmol/ml): 1.5651
biofilm growth: OD 630 nm at 24 hrs divided by OD of control (control = 1) (S. sanguinis; 10 μmol/ml): 2.4890
biofilm growth: OD 630 nm at 24 hrs divided by OD of control (control = 1) (S. sanguinis; 20 μmol/ml): 0.5600
biofilm growth: OD 630 nm at 24 hrs divided by OD of control (control = 1) (S. sanguinis; 25 μmol/ml): 1.0289
biofilm growth: OD 630 nm at 24 hrs divided by OD of control (control = 1) (T. forsythia; 5 μmol/ml): 0.6028
biofilm growth: OD 630 nm at 24 hrs divided by OD of control (control = 1) (T. forsythia; 10 μmol/ml): 0.9745
biofilm growth: OD 630 nm at 24 hrs divided by OD of control (control = 1) (T. forsythia; 20 μmol/ml): 0.4562
biofilm growth: OD 630 nm at 24 hrs divided by OD of control (control = 1) (T. forsythia; 25 μmol/ml): 0.5433
prebiotic effects (extent of growth, threshold value 1.25) [1]: exhibited prebiotic effects
